Source: the supplement of paper PMC10307832

What was measured:
Experiment in all cases: relative viability (nuclei count vs DMSO), 5 days (fraction); higher = more cells survive
Gemcitabine + Phenformin = compound: Nc1ccn([C@@H]2O[C@H](CO)[C@@H](O)C2(F)F)c(=O)n1 [Gemcitabine] + N=C(N)NC(=N)NCCc1ccccc1 [Phenformin] (partner 250 µM)
Summary of the method: (§1)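 Cells from lung cancer lines were seeded into 1536-well plates and, one day later, dosed by pin tool. Treatments were either a single drug or a fixed dose of an anchor drug with five library-drug doses (not always all listed) in √10 steps. After 5 days, nuclei were stained in a one-step fixation (final 0.05% Triton X-100, 1% formaldehyde, 1 ug/ml Hoechst) and counted on 4× images, and relative viability is the treated-to-vehicle nuclei ratio, as the median of duplicate plates.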

Gemcitabine + AZD7762 = compound: Nc1ccn([C@@H]2O[C@H](CO)[C@@H](O)C2(F)F)c(=O)n1 [Gemcitabine] + NC(=O)Nc1cc(-c2cccc(F)c2)sc1C(=O)N[C@H]1CCCNC1 [AZD7762] (partner 0.2 µM)
Summary of the method: as §1

Gemcitabine + Alpelisib = compound: Nc1ccn([C@@H]2O[C@H](CO)[C@@H](O)C2(F)F)c(=O)n1 [Gemcitabine] + Cc1nc(NC(=O)N2CCC[C@H]2C(N)=O)sc1-c1ccnc(C(C)(C)C(F)(F)F)c1 [Alpelisib] (partner 2 µM)
Summary of the method: as §1

Gemcitabine + Pictilisib = compound: Nc1ccn([C@@H]2O[C@H](CO)[C@@H](O)C2(F)F)c(=O)n1 [Gemcitabine] + CS(=O)(=O)N1CCN(Cc2cc3nc(-c4cccc5[nH]ncc45)nc(N4CCOCC4)c3s2)CC1 [Pictilisib] (partner 1 µM)
Summary of the method: as §1

Cell Line | relative viability (Gemcitabine + Phenformin; first compound 0.001 µM) | relative viability (Gemcitabine + Phenformin; first compound 0.003162 µM) | relative viability (Gemcitabine + Phenformin; first compound 0.01 µM) | relative viability (Gemcitabine + Phenformin; first compound 0.03162 µM) | relative viability (Gemcitabine + Phenformin; first compound 0.1 µM) | relative viability (Gemcitabine + AZD7762; first compound 0.001 µM) | relative viability (Gemcitabine + AZD7762; first compound 0.003162 µM) | relative viability (Gemcitabine + AZD7762; first compound 0.01 µM) | relative viability (Gemcitabine + AZD7762; first compound 0.03162 µM) | relative viability (Gemcitabine + AZD7762; first compound 0.1 µM) | relative viability (Gemcitabine + Alpelisib; first compound 0.001 µM) | relative viability (Gemcitabine + Alpelisib; first compound 0.003162 µM) | relative viability (Gemcitabine + Alpelisib; first compound 0.01 µM) | relative viability (Gemcitabine + Alpelisib; first compound 0.03162 µM) | relative viability (Gemcitabine + Alpelisib; first compound 0.1 µM) | relative viability (Gemcitabine + Pictilisib; first compound 0.001 µM) | relative viability (Gemcitabine + Pictilisib; first compound 0.003162 µM) | relative viability (Gemcitabine + Pictilisib; first compound 0.01 µM) | relative viability (Gemcitabine + Pictilisib; first compound 0.03162 µM) | relative viability (Gemcitabine + Pictilisib; first compound 0.1 µM)
NCI-H1395 | 0.403 | 0.417 | 0.321 | 0.315 | 0.318 | 0.408 | 0.37 | 0.352 | 0.307 | 0.336 | 1.19 | 0.815 | 0.459 | 0.369 | 0.406 | 0.544 | 0.666 | 0.413 | 0.351 | 0.347
NCI-H1437 | 0.313 | 0.213 | 0.193 | 0.17 | 0.112 | 1.16 | 0.951 | 0.171 | 0.159 | 0.124 | 1.15 | 0.873 | 0.373 | 0.185 | 0.0956 | 0.409 | 0.457 | 0.258 | 0.118 | 0.0772
NCI-H1651 | 0.392 | 0.359 | 0.335 | 0.151 | 0.155 | 0.519 | 0.435 | 0.39 | 0.0714 | 0.0892 | 0.923 | 0.967 | 0.889 | 0.159 | 0.0819 | 0.501 | 0.54 | 0.409 | 0.136 | 0.0858
NCI-H1666 | 0.559 | 0.476 | 0.383 | 0.378 | 0.355 | 0.866 | 0.699 | 0.582 | 0.332 | 0.368 | 0.863 | 0.92 | 0.364 | 0.232 | 0.279 | 0.326 | 0.471 | 0.306 | 0.284 | 0.274
NCI-H1734 | 0.337 | 0.29 | 0.163 | 0.0972 | 0.106 | 0.153 | 0.118 | 0.0866 | 0.113 | 0.0969 | 0.567 | 0.627 | 0.213 | 0.153 | 0.0967 | 0.455 | 0.387 | 0.233 | 0.151 | 0.113
NCI-H1755 | 0.582 | 0.651 | 0.482 | 0.4 | 0.336 | 0.462 | 0.396 | 0.236 | 0.26 | 0.245 | 0.897 | 0.919 | 0.768 | 0.25 | 0.215 | 0.417 | 0.45 | 0.355 | 0.249 | 0.188
NCI-H1792 | 0.291 | 0.104 | 0.0944 | 0.119 | 0.0679 | 0.166 | 0.0355 | 0.0254 | 0.0229 | 0.033 | 0.774 | 0.483 | 0.182 | 0.101 | 0.07 | 0.238 | 0.226 | 0.111 | 0.0979 | 0.0699
NCI-H1793 | 0.38 | 0.324 | 0.223 | 0.166 | 0.13 | 0.778 | 0.211 | 0.0841 | 0.161 | 0.0995 | 0.706 | 0.594 | 0.354 | 0.156 | 0.147 | 0.262 | 0.282 | 0.291 | 0.186 | 0.176
NCI-H1915 | 0.353 | 0.356 | 0.344 | 0.279 | 0.214 | 0.768 | 0.662 | 0.656 | 0.127 | 0.0991 | 1.02 | 1.11 | 1.04 | 0.711 | 0.308 | 1.02 | 0.949 | 0.909 | 0.857 | 0.229
NCI-H1944 | 0.225 | 0.193 | 0.169 | 0.161 | 0.132 | 0.518 | 0.36 | 0.0907 | 0.109 | 0.086 | 0.855 | 0.845 | 0.783 | 0.366 | 0.14 | 0.352 | 0.373 | 0.355 | 0.241 | 0.22
NCI-H1975 | 0.416 | 0.268 | 0.176 | 0.129 | 0.122 | 0.699 | 0.353 | 0.19 | 0.247 | 0.204 | 0.795 | 0.792 | 0.314 | 0.18 | 0.157 | 0.315 | 0.282 | 0.229 | 0.168 | 0.136
NCI-H1993 | 0.461 | 0.485 | 0.439 | 0.421 | 0.407 | 0.74 | 0.483 | 0.398 | 0.439 | 0.346 | 0.706 | 0.642 | 0.528 | 0.528 | 0.491 | 0.855 | 0.804 | 0.651 | 0.695 | 0.647
NCI-H2085 | 0.79 | 0.61 | 0.422 | 0.282 | 0.271 | 0.949 | 0.847 | 0.613 | 0.337 | 0.271 | 0.892 | 0.959 | 0.765 | 0.57 | 0.429 | 0.45 | 0.448 | 0.461 | 0.344 | 0.347
NCI-H2087 | 0.455 | 0.231 | 0.149 | 0.108 | 0.113 | 1.1 | 0.145 | 0.144 | 0.111 | 0.104 | 1.26 | 0.872 | 0.38 | 0.15 | 0.14 | 0.73 | 0.662 | 0.386 | 0.193 | 0.199
NCI-H2126 | 0.504 | 0.422 | 0.399 | 0.358 | 0.216 | 0.995 | 1.03 | 0.891 | 0.265 | 0.205 | 0.749 | 0.705 | 0.728 | 0.504 | 0.255 | 0.474 | 0.485 | 0.479 | 0.349 | 0.278
NCI-H2170 | 0.426 | 0.424 | 0.363 | 0.196 | 0.144 | 0.889 | 0.771 | 0.128 | 0.106 | 0.108 | 0.85 | 0.767 | 0.412 | 0.181 | 0.169 | 0.318 | 0.359 | 0.215 | 0.157 | 0.156
